Data taken from patent US6562834B2, “Combination comprising camptothecin and a stilbene derivative for the treatment of cancer” (Aventis Pharma S. A., priority 2000, dated 2003).

System: colon adenocarcinoma C51
Assay: Antitumor effect and safety of CPT-11, combretastatin and their combinations in mice bearing colon adenocarcinoma C51
Assay type: in vivo
Protocol: This efficacy may be quantified, for example by the log10 cells killed, which is determined by the following formula:
log10 cells killed=T−C(days)/3.32×Td
in which T−C represents the time taken for the cells to grow, which is the mean time in days for the tumors of the treated group (T) to reach a predetermined value (1 g for example) and the tumors of the control group (C) to reach the same value, and Td represents the time in days needed for the volume of the tumors in the control group to double. (T. H. Corbett et al., Cancer, 40, 2660.2680 (1977); F. M. Schabel et al., Cancer Drug Development, Part B, Methods in Cancer Research, 17, 3-51, New York, Academic Press Inc. (1979)). A product is considered to be active if log10 cells killed is greater than or equal to 0.7. A product is considered to be very active if the log10 cells killed is greater than 2.8.
The effect of the combination of CPT-11 and combretastatin was evaluated in mice bearing colon adenocarcinoma C51. CPT-11 was given orally on days two through five, […], at different dosage levels. Combretastatin was administered intravenously, two times a day, on days one to five. In the combination arms, three different dosages of CPT-11 were administered orally twice daily on days two through five and three different dosages of combretastatin were administered intravenously twice a day on days one through five.
Combretastatin, administered intravenously, and CPT-11, administered orally, were tested in several different schedules as reported in Table IV. When used as a single agent, combretastatin was administered twice a day for five consecutive days. When CPT-11 was administered alone, it was given once a day for four consecutive days.
When administered sequentially, two schedules were used. When combretastatin was given first, it was administered on day 1, followed by administration of CPT-11 once a day on days 2-5. When CPT-11 was the first compound given in the sequence, it was administered once a day on days 1-4, followed by combretastatin on day 5.

Compound | Colon 51 PR (partial response: mice with decrease in tumor volume of at least 50% / mice tested) (single agent combretastatin IV 116.5 mg/kg/injection (highest non-toxic dose)) | Log10 Cell Kill (single agent combretastatin IV 116.5 mg/kg/injection (highest non-toxic dose), 2 x/day days 1-5, Colon 51) | highest non-toxic dose (CPT-11 oral, single agent, mice) [mg/kg] | Log10 Cell Kill (single agent CPT-11 oral 400 mg/kg (highest non-toxic dose), Colon 51, tumor size 400-500 mg, Td = 2.4 d)
Combretastatin | 5/5 | 1.3 | – | –
CCc1c2c(nc3ccc(OC(=O)N4CCC(N5CCCCC5)CC4)cc13)-c1cc3c(c(=O)n1C2)COC(=O)[C@]3(O)CC [CPT-11, irinotecan] | – | – | 400 | 1.1
